Measured values: article PMC6829886, “Inhibition of Non-Small Cell Lung Cancer Cells by Oxy210, an Oxysterol-Derivative that Antagonizes TGFβ and Hedgehog Signaling” (Cells, 2019)

Experiments:
[1] = Metabolic stability in human liver microsomes; assay type: in vitro ADME
Human TGFBR2 = biological target: T1, Human TGFBR2 (Homo sapiens, UniProt P37173); experiment: TGFβ receptor II kinase inhibition assay (Eurofins); assay type: biochemical; conditions: vs. positive controls Cdk1/2 Inhibitor III and PKR Inhibitor
T1 construct: Human TGFBR2 (amino acid 188-end); purchased Eurofins
T1 sequence (P37173 188-567 limits assumed): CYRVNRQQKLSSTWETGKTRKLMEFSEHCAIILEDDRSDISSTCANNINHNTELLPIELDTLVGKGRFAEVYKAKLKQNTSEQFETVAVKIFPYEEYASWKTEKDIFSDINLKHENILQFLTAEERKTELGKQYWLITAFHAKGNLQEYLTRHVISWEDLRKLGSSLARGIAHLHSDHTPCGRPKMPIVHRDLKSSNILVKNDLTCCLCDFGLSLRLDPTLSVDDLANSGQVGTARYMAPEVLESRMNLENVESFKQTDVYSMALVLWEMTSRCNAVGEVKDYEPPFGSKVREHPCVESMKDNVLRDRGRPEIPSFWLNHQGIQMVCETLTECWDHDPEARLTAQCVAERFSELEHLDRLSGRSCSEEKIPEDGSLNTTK
Experimental: Effect of Oxy210 on inhibition of TGFβ receptors I and II kinase activity was assessed by Eurofins (Celle-L’Evescault, France). TGFBR1 (h): Human TGFBR1 (amino acid 200 to end) was incubated with 8 mM MOPS pH 7.0, 0.2 mM EDTA, 1 mM MnCl2, 2 mg/mL casein, 10 mM Magnesium acetate and […] (specific activity and concentration as required). The reaction was initiated by the addition of the Mg/ATP mix. After incubation for 40 min at room temperature, the reaction was stopped by the addition of phosphoric acid to a concentration of 0.5%. 10 μL of the reaction was then spotted onto a P30 filtermat and washed four times for 4 min in 0.425% phosphoric acid and once in methanol prior to drying and scintillation counting. TGFBR2 (h): Human TGFBR2 (amino acid 188-end) was incubated with 20 mM Tris/HCl pH 8.5, 0.2 mM EDTA, 0.33 mg/mL MBP, 10 mM Magnesium acetate and [9-33P-ATP] (specific activity and concentration as required). The reaction was initiated by the addition of the Mg/ATP mix. After incubation for 120 min at room temperature, the reaction was stopped by the addition of phosphoric acid to a concentration of 0.5%. […]
Figure 11 Inhibition of TGFβ-induced Smad2/3 phosphorylation and transcriptional activity. […] Luciferase activity was measured and normalized to the Renilla luciferase activity. […]

[2] = test system: EGF or Il-1β target gene expression (fibronectin, IL-6) in NIH3T3-E1 or A549 cells; experiment: Target gene expression after stimulation with EGF or Il-1β (pathway specificity); assay type: cell-based
Source text: We content that the biological properties of Oxy210 described here are specific inhibitory effects, by and large limited to Hh and TGF β signaling, rather than the result of nonspecific binding events and/or a pan inhibition of cellular signaling.

pKa = assay type: physicochemical; conditions: printed in Figure 1, method not stated
Source text: Figure 1 The molecular structures of Cholesterol, Oxy8, Oxy133, Oxy16, Oxy186 and Oxy210. TEXT PRINTED IN THE PICTURE: Oxy210: pKa ~ 5

C[C@]12CC[C@H]3[C@@H](CC=C4C[C@@H](O)CC[C@@]43C)[C@@H]1CC[C@@H]2[C@](C)(O)CCc1cccnc1 [Oxy210, (3S,8S,9S,10R,13S,14S,17S)-17-((R)-2-hydroxy-4-(pyridin-3-yl)butan-2-yl)-10,13-dimethyl-2,3,4,7,8,9,10,11,12,13,14,15,16,17-tetradecahydro-1H-cyclopenta[a]phenanthren-3-ol]
half-life ([1]; human, liver microsomes, read-out: HLM, Half-Life): 1.15 h | remaining at 1 h ([1]; read-out: HLM, % Remaining after 60 min): 55% | inhibitory activity on TβRII in functional kinase assay (Human TGFBR2): did not display significant inhibitory activity | inhibition of EGF or Il-1β target gene expression (fibronectin, IL-6) [2]: did not result in significant inhibition | pKa (pKa): ~5
